Data reported in patent US20240325548A1, “DYNAMIC BIOACTIVE SCAFFOLDS AND THERAPEUTIC USES THEREOF AFTER CNS INJURY” (Northwestern University, priority 2021, published 2024).

Experiments:
[1] = Small- and wide-angle X-ray scattering (SAXS/WAXS) of PA nanofibers; type: physicochemical; conditions: PA nanofibers in solution
Protocol: Small-angle X-ray scattering (SAXS), medium-angle X-ray scattering (MAXS), a wide-angle X-ray scattering (WAXS) experiments were performed at beamline 5-ID-D of the DuPont-Northwestern-Dow Collaborative Access Team (DND-CAT) Synchrotron Research Center at the Advanced Photon Source, Argonne National Laboratory. 100-150 μL of sample solution ([PA]=1-3 w/v % (˜6-10 mM) in aqueous NaCl and KCl ([NaCl]=150 mM and [KCl]=3 mM)) was introduced into capillary flow-cell with a fixed diameter and irradiated with X-ray for an exposure time of 0.5, 2, 3, or 10 s. Samples were oscillated at a rate of […] in the capillary with a syringe pump during sample measurement to prevent damage due to beam overexposure. Data was collected with an X-ray energy at 17 keV ([…]) with a triple-area detector system. The scattering intensity was recorded in the interval 0.002390<q<4.4578 Å^−1. The wave vector q is defined as =(4π/λ) sin(θ/2), where θ is the scattering angle. The acquired 2D scattering data were then reduced to 1D intensity vs. wavevector plots via azimuthal integration around the beam center in GSAS-II software. Background scattering patterns were obtained from samples containing 150 mM NaCl and 3 mM KCl. This background data was then subtracted from experimental data. All data was analyzed using the Irena software package running on IgorPro software.

[2] = T2-NMR spin-spin relaxation rate of PA assemblies; type: physicochemical; conditions: for relaxation rate 1H-R2 of methylene protons on ε carbon of K residue in IKVAV: T2-NMR, IKVAV PA library
Protocol: NMR spectra were acquired at 600 MHz on a Tecmag NMR spectrometer using a Doty diffusion probe with a sweep width of 6 kHz and 16k data points or at 600 MHz on a Brucker Neo system with QCI-F cryoprobe.
NMR spectra for IKVAV PAs were recorded at 25° C. using TFA-d, H2O/D2O in 9/1 ratio (D2O contains 0.05 wt. % 3-(trimethylsilyl) propionic-2,2,3,3-d4 acid, sodium salt) as solvents. Chemical shifts are reported in part per million (ppm). Structural assignment was performed using ^1H,^1H-gCOSY, ^1H,^13C-gHSCQAD, TOCSY and NOESY. Multiplicities are quoted as singlet (s), doublet (d), multiplets (m), doublet of doublets (dd), doublet of doublet of doublets (ddd), triplet (t), quartet (q). The […] and typical spectra required 32 scans. Additional scans (512) were required for accurate estimation of the aromatic signal intensity since the epitope containing aromatic protons was present at only 10 mol %.
The spin-spin relaxation rates were measured using the Carr-Purcell-Gill-Meiboom pulse sequence with a delay time of 0.2 ms in a variable loop. The peak intensity data was fit to and exponential in the form:
where τ is the length of the delay time, R2 is the spin-spin relaxation rate and b are the baseline.

[3] = test system: hNPCs; assay: Neuronal differentiation of hNPCs treated with IKVAV PAs (TUJ-1+ cells); type: cell-based, human
Source text: Neural progenitor cells (NPCs) were differentiated from human embryonic stem cells HUES 64 (Harvard University) (see FIG. 2C). In short, 70% confluent stem cell cultures grown in Matrigel (Thermo Fisher) coated plates with mTESR medium (STEMCELL Technologies), were switched to N2B27 medium (50% DMEM: F12, 50% Neurobasal, supplemented with NEAA, Glutamax, N2 and B27; Gibco) containing dual SMAD inhibitors (SB431542, DNSK International and LDN-193189, Tocris) for 12 days to induce the generation of neural progenitors. Neuralization was enhanced by supplementing medium with laminin from day 5 to 12. Next, neural rosettes were dissociated with neural rosette selection reagent (STEMCELL Technologies) to obtain NPCs, which are expanded in N2B27 (Gibco) medium supplemented with bFGF (Millipore). For experimentation in the different PA platforms, NPCs were dissociated with Accutase (Innovative Cell technology), and cultured in the distinct platforms with DMEM: F12+N2+B27 medium with hyclone penicillin-streptomycin (GE Healthcare) and ascorbic acid (0.2 μg/mL; Sigma-Aldrich).
For IKVAV PA treatments, hNPCs were cultured on ornithine coatings (German Glass, Chemglass Life Science) in 6 well and 24 well plates at a density of 500,000 cells/well and 80,000 cells/well respectively. hNPCs were treated with […] of IKVAV PAs ([PA]=6 mM, [KCl]=3 mM, [NaCl]=150 mM) or recombinant laminin protein (10 mg/mL) in solution. IKVAV PA2 and IKVAV PA5 were also mixed with 5 mM CaCl2) at a ratio PA:CaCl2) 6:1 to treat hNPCs. For 2D experiments, hNPCs were cultured on the different IKVAV PAs or laminin coatings in 6 well and 24 well plates at densities mentioned above. For co-assembled experiments, hNPCs were cultured on the different co-assembled PA coatings in 6 well and 24 well plates at a density of 400,000 cells/well and 50,000 cells/well respectively.
hNPCs were fed 4 times a week with DMEM: F12+N2^+B27 medium with hyclone penicillin-streptomycin and ascorbic acid. After 24 h, 72 h 1- or 2-weeks in vitro, cell lysates were harvested or fixed for WB or ICC, respectively. Three replicates per condition and at least three independent experiments were carried out for all conditions investigated.
For immunofluorescence, fixed primary cultures or free-floating tissue sections (40 m Thick) were incubated in blocking buffer containing 0.02% Triton-X (Sigma-Aldrich), 1% NHS (Gibco) and PBS 1× (Gibco). Samples were incubated with primary antibodies over night at 4° C. Alexa-488, Alexa-555 and/or Alexa-647 (1:500, Thermofisher) were used as secondary antibodies. DAPI (1:500, Thermofisher) was used to stain nuclei. Finally, the samples were mounted on coverslips with Immu-Mount (Fisher Scientific) solution for imaging.
For in vitro cell quantification, image files were imported into NIH Image J (1.51) software and the “analyze particles” and “cell counter” functions were used to measure the total number of cells in a determined area. Serial tissue sections were stained with NeuN and ChAT using free-floating immunostaining were quantified using Nikon Elements software. The rostral and caudal borders of the lesions were chosen as the first cross-sections that had NeuN staining in all four gray matter horns. 8 sections within the lesion were chosen per animal and expressed as number of neurons per section. Automated multichannel image acquisition, image stitching, and z-stack reconstruction ([…]) were carried out on a Nikon GasP R1 confocal microscope to image the entire selected cross-section for NeuN and Chat markers for all conditions.

[4] = T2 relaxation of K residue of IKVAV PAs, no Ca2+

Row | Substance | SAXS slope in the Guinier region [1] | relaxation rate 1H-R2 of methylene protons on ε carbon of K residue in IKVAV [2] [s⁻¹] | R2 [2, 4] [s⁻¹] | R2 ([2]; T2 relaxation of K residue, +Ca2+) [s⁻¹] | percentage of induction of TUJ-1+ neuronal cells [3] [%]
1 | C16-A2G2E4GIKVAV [IKVAV PA2] | −1.2 | 2.7 ± 0.1 | 2.7 ± 0.1 | 8.6 ± 0.5 | 20.5±1
2 | C16-G4E4GIKVAV [IKVAV PA5] | −0.2 | 2.6 ± 0.003 | 2.6 ± 0.03 | – | 20.7±1.2
3 | C16-V2A2E4GIKVAV [IKVAV PA1] | – | – | 11.2 ± 2.9 | – | 8.2±0.7
4 | C16-VAG2E4GIKVAV [IKVAV PA4] | – | – | 5.6 ± 0.4 | – | 14±1.2
